Measurements published in PubChem BioAssay AID2060343 (Molecular Pharmacology Branch, DTP, NCI, 2025).

Tested on: 138582-337-R-J1-PDC spheroids with HUVEC/MSC, viability
Assay: Anticancer human tumor 138582-337-R-J1-PDC patient-derived Merkel cell tumor cell line growth inhibition [IpAb]
Settings: for IC50: curve of first compound; for viability, T/C: stronger effect = lower value
In short: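 Combinations with ipatasertib or abemaciclib were tested on tumour spheroids holding HUVEC (25%) and MSC (15%) alongside 60% malignant cells. Top concentration was at or near clinical Cmax (10 microM if undefined), descending in half-log steps.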

[1] = second compound 0.01 µM, first compound 0.0316 µM
[2] = second compound 0.01 µM, first compound 0.1 µM
[3] = second compound 0.01 µM, first compound 0.316 µM
[4] = second compound 0.01 µM, first compound 1 µM
[5] = second compound 0.01 µM, first compound 3.16 µM
[6] = second compound 0.01 µM, first compound 10 µM
[7] = second compound 0.0316 µM, first compound 0.0316 µM
[8] = second compound 0.0316 µM, first compound 0.1 µM
[9] = second compound 0.0316 µM, first compound 0.316 µM
[10] = second compound 0.0316 µM, first compound 1 µM
[11] = second compound 0.0316 µM, first compound 3.16 µM
[12] = second compound 0.0316 µM, first compound 10 µM
[13] = second compound 0.1 µM, first compound 0.0316 µM
[14] = second compound 0.1 µM, first compound 0.1 µM
[15] = second compound 0.1 µM, first compound 0.316 µM
[16] = second compound 0.1 µM, first compound 1 µM
[17] = second compound 0.1 µM, first compound 3.16 µM
[18] = second compound 0.1 µM, first compound 10 µM
[19] = second compound 0.316 µM, first compound 0.0316 µM
[20] = second compound 0.316 µM, first compound 0.1 µM
[21] = second compound 0.316 µM, first compound 0.316 µM
[22] = second compound 0.316 µM, first compound 1 µM
[23] = second compound 0.316 µM, first compound 3.16 µM
[24] = second compound 0.316 µM, first compound 10 µM
[25] = second compound 1 µM, first compound 0.0316 µM
[26] = second compound 1 µM, first compound 0.1 µM
[27] = second compound 1 µM, first compound 0.316 µM
[28] = second compound 1 µM, first compound 1 µM
[29] = second compound 1 µM, first compound 3.16 µM
[30] = second compound 1 µM, first compound 10 µM
[31] = second compound 0.01 µM, first compound 0.00949 µM
[32] = second compound 0.01 µM, first compound 0.03 µM
[33] = second compound 0.01 µM, first compound 0.0949 µM
[34] = second compound 0.01 µM, first compound 0.3 µM
[35] = second compound 0.0316 µM, first compound 0.00949 µM
[36] = second compound 0.0316 µM, first compound 0.03 µM
[37] = second compound 0.0316 µM, first compound 0.0949 µM
[38] = second compound 0.0316 µM, first compound 0.3 µM
[39] = second compound 0.1 µM, first compound 0.00949 µM
[40] = second compound 0.1 µM, first compound 0.03 µM
[41] = second compound 0.1 µM, first compound 0.0949 µM
[42] = second compound 0.1 µM, first compound 0.3 µM
[43] = second compound 0.316 µM, first compound 0.00949 µM
[44] = second compound 0.316 µM, first compound 0.03 µM
[45] = second compound 0.316 µM, first compound 0.0949 µM
[46] = second compound 0.316 µM, first compound 0.3 µM
[47] = second compound 1 µM, first compound 0.00949 µM
[48] = second compound 1 µM, first compound 0.03 µM
[49] = second compound 1 µM, first compound 0.0949 µM
[50] = second compound 1 µM, first compound 0.3 µM
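Also: spheroids exposed to compounds for seven days.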
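For viability, T/C in this document: 100% = DMSO vehicle control viability.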

For `C=CC(=O)N1CCN(c2nc(=O)n(-c3c(C)ccnc3C(C)C)c3nc(-c4c(O)cccc4F)c(F)cc23)C(C)C1` (stereo not given) + CCN1CCN(Cc2ccc(Nc3ncc(F)c(-c4cc(F)c5nc(C)n(C(C)C)c5c4)n3)nc2)CC1, the IC50 (second compound 0.01 µM) was greater than 10 µM, the IC50 (second compound 0.0316 µM) was greater than 10 µM and the IC50 (second compound 0.1 µM) was greater than 10 µM. The IC50 (second compound 0.316 µM) was greater than 10 µM, the IC50 (second compound 1 µM) was greater than 10 µM and the viability, T/C [1] was 107%. It also gave a viability, T/C [2] of 107%, a viability, T/C [3] of 121% and a viability, T/C [4] of 121%. It also gave a viability, T/C [5] of 143%, a viability, T/C [6] of 176% and a viability, T/C [7] of 98.7%. For the same compound, the viability, T/C [8] was 95.7%, the viability, T/C [9] was 90.7% and the viability, T/C [10] was 116%. The viability, T/C [11] was 125%, the viability, T/C [12] was 186% and the viability, T/C [13] was 83.7%. The viability, T/C [14] was 90.6%, the viability, T/C [15] was 104% and the viability, T/C [16] was 119%. It also gave a viability, T/C [17] of 139%, a viability, T/C [18] of 218% and a viability, T/C [19] of 94.8%. The viability, T/C [20] was 94.3%, the viability, T/C [21] was 92.8% and the viability, T/C [22] was 105%. It also gave a viability, T/C [23] of 144%, a viability, T/C [24] of 229% and a viability, T/C [25] of 104%. It also gave a viability, T/C [26] of 96.8%, a viability, T/C [27] of 111% and a viability, T/C [28] of 118%. The viability, T/C [29] was 135% and the viability, T/C [30] was 282%.

`CC(=O)c1c(C)c2cnc(Nc3ccc(N4CCNCC4)cn3)nc2n(C2CCCC2)c1=O` + CCN1CCN(Cc2ccc(Nc3ncc(F)c(-c4cc(F)c5nc(C)n(C(C)C)c5c4)n3)nc2)CC1 showed an IC50 (second compound 0.01 µM) greater than 0.3 µM, an IC50 (second compound 0.0316 µM) greater than 0.3 µM and an IC50 (second compound 0.1 µM) greater than 0.3 µM. The IC50 (second compound 0.316 µM) was greater than 0.3 µM, the IC50 (second compound 1 µM) was greater than 0.3 µM and the viability, T/C (second compound 0.01 µM, first compound 0.000949 µM) was 97.9%. For the same compound, the viability, T/C (second compound 0.01 µM, first compound 0.003 µM) was 91.1%, the viability, T/C [31] was 88.1% and the viability, T/C [32] was 92.5%. The viability, T/C [33] was 93.4%, the viability, T/C [34] was 86.6% and the viability, T/C (second compound 0.0316 µM, first compound 0.000949 µM) was 91.2%. For the same compound, the viability, T/C (second compound 0.0316 µM, first compound 0.003 µM) was 89.5%, the viability, T/C [35] was 79.7% and the viability, T/C [36] was 89%. The viability, T/C [37] was 88.3%, the viability, T/C [38] was 81.8% and the viability, T/C (second compound 0.1 µM, first compound 0.000949 µM) was 84.6%. It also gave a viability, T/C (second compound 0.1 µM, first compound 0.003 µM) of 91.5%, a viability, T/C [39] of 85.1% and a viability, T/C [40] of 88.7%. The viability, T/C [41] was 82%, the viability, T/C [42] was 75% and the viability, T/C (second compound 0.316 µM, first compound 0.000949 µM) was 93.6%. The viability, T/C (second compound 0.316 µM, first compound 0.003 µM) was 86.6%, the viability, T/C [43] was 85.3% and the viability, T/C [44] was 79.7%. For the same compound, the viability, T/C [45] was 87.6%, the viability, T/C [46] was 79.7% and the viability, T/C (second compound 1 µM, first compound 0.000949 µM) was 99.4%. For the same compound, the viability, T/C (second compound 1 µM, first compound 0.003 µM) was 102%, the viability, T/C [47] was 93.3% and the viability, T/C [48] was 88.6%. It also gave a viability, T/C [49] of 92.6% and a viability, T/C [50] of 84.7%.

With `CC(C)(C)c1cnc(CSc2cnc(NC(=O)C3CCNCC3)s2)o1` + CCN1CCN(Cc2ccc(Nc3ncc(F)c(-c4cc(F)c5nc(C)n(C(C)C)c5c4)n3)nc2)CC1 the IC50 (second compound 0.01 µM) was 0.145 µM, the IC50 (second compound 0.0316 µM) was 0.124 µM and the IC50 (second compound 0.1 µM) was 0.12 µM. For the same compound, the IC50 (second compound 0.316 µM) was 0.0995 µM, the IC50 (second compound 1 µM) was 0.0677 µM and the viability, T/C [31] was 107%. For the same compound, the viability, T/C [32] was 109%, the viability, T/C [33] was 79% and the viability, T/C [34] was 0.85%. For the same compound, the viability, T/C (second compound 0.01 µM, first compound 0.949 µM) was 0.5%, the viability, T/C (second compound 0.01 µM, first compound 3 µM) was 0.66% and the viability, T/C [35] was 96.7%. The viability, T/C [36] was 103%, the viability, T/C [37] was 64.9% and the viability, T/C [38] was 0.68%. It also gave a viability, T/C (second compound 0.0316 µM, first compound 0.949 µM) of 0.35%, a viability, T/C (second compound 0.0316 µM, first compound 3 µM) of 0.65% and a viability, T/C [39] of 91.6%. For the same compound, the viability, T/C [40] was 91.3%, the viability, T/C [41] was 62.4% and the viability, T/C [42] was 0.43%. The viability, T/C (second compound 0.1 µM, first compound 0.949 µM) was 0.5%, the viability, T/C (second compound 0.1 µM, first compound 3 µM) was 0.5% and the viability, T/C [43] was 92.9%. It also gave a viability, T/C [44] of 96.5%, a viability, T/C [45] of 52.1% and a viability, T/C [46] of 0.57%. For the same compound, the viability, T/C (second compound 0.316 µM, first compound 0.949 µM) was 0.45%, the viability, T/C (second compound 0.316 µM, first compound 3 µM) was 0.7% and the viability, T/C [47] was 88.7%. For the same compound, the viability, T/C [48] was 94.7%, the viability, T/C [49] was 32.7% and the viability, T/C [50] was 0.63%. The viability, T/C (second compound 1 µM, first compound 0.949 µM) was 0.5% and the viability, T/C (second compound 1 µM, first compound 3 µM) was 0.78%.

With `Cn1nccc1Nc1nccc(-c2ccn(C(CO)c3ccc(Cl)c(F)c3)c(=O)c2)n1` (stereo not given) + CCN1CCN(Cc2ccc(Nc3ncc(F)c(-c4cc(F)c5nc(C)n(C(C)C)c5c4)n3)nc2)CC1 the IC50 (second compound 0.01 µM) was greater than 10 µM, the IC50 (second compound 0.0316 µM) was greater than 10 µM and the IC50 (second compound 0.1 µM) was greater than 10 µM. The IC50 (second compound 0.316 µM) was greater than 10 µM, the IC50 (second compound 1 µM) was greater than 10 µM and the viability, T/C [1] was 99.8%. For the same compound, the viability, T/C [2] was 92.3%, the viability, T/C [3] was 90.1% and the viability, T/C [4] was 94.8%. It also gave a viability, T/C [5] of 107%, a viability, T/C [6] of 154% and a viability, T/C [7] of 88.3%. For the same compound, the viability, T/C [8] was 90.5%, the viability, T/C [9] was 82.7% and the viability, T/C [10] was 91.9%. For the same compound, the viability, T/C [11] was 107%, the viability, T/C [12] was 149% and the viability, T/C [13] was 79.9%. The viability, T/C [14] was 89.8%, the viability, T/C [15] was 79.6% and the viability, T/C [16] was 90.2%. It also gave a viability, T/C [17] of 108%, a viability, T/C [18] of 134% and a viability, T/C [19] of 89.8%. The viability, T/C [20] was 82.7%, the viability, T/C [21] was 88.6% and the viability, T/C [22] was 96%. The viability, T/C [23] was 124%, the viability, T/C [24] was 173% and the viability, T/C [25] was 106%. For the same compound, the viability, T/C [26] was 96%, the viability, T/C [27] was 83.2% and the viability, T/C [28] was 97.6%. It also gave a viability, T/C [29] of 142% and a viability, T/C [30] of 178%.
